Laboratory results taken from article PMC10590383, “Repurposing conformational changes in ANL superfamily enzymes to rapidly generate biosensors for organic and amino acids” (Nature Communications, 2023).

Experiments:
[1] = Substrate (ligand) specificity of […]s; type: biochemical; settings: for fluorescence response of GECFINDER to each substrate, AVE of 3 repeats: Supplementary Fig. 3 c, substrate specificity; for AVE of Repeat 1-3, sensor signal with ligand (Supplementary Fig. 7 c): 1 mM ligand, Control AVE 12117.3
Method: Fig. 4 Engineering ligand specificity of GrsA-PheA for generating […]s. a The selectivity-conferring code of Phe and Leu A domains. b–f Dose–response curve of purified […]s with increasing concentrations of ligands in 100 mM Tris-HCl buffer (pH=7.5). All data shown are means ± S.D. (n = 3 biologically independent samples). g A series of […] reactions was tested to show the […]’s specificity with 20 proteinogenic amino acids. The values on the heatmap represent the ΔF/F0 value normalized to each […]’s maximal ΔF/F0 value ((ΔF/F0)/maximal ΔF/F0). The concentrations of 20 amino acids were 100 μM. The color indicates the average value of three independent biological replicates after 15 min. All data shown are means ± S.D. (n = 3 biologically independent samples). Source data are provided as a Source data file.
Ligand specificity is an important biosensors feature. Generally, the NRPS A domains have high specificity for their substrates because they are the first “gatekeeper” of NRPSs and ensure that the correct monomers are activated and thioesterified[32],[33]. Therefore, we speculated that this property would be inherited by our […]s because the ligand-binding pockets were unchanged during the […] creation process. Twenty proteinogenic amino acids were used to test the ligand specificity of […]s. […] We also investigated the dependence of […]s on Mg^2+ and ATP (Supplementary Fig. 4). […] This phenomenon corroborates with the distinct conformational changes observed in Hinge A of Nt4CL2 (Mg^2++ATP) (PDB ID: 5BSM) and Nt4CL2 (Coumaroyl-AMP) (PDB ID: 5BST) reported in the literature (Supplementary Fig. 4k), where the direction of motion in hinge A differs. […] During the determination of quantum yield, we observed that the absolute quantum yield of the […] variants ranged from 0.3 to 0.6 upon addition of the respective substrates, which show no significant difference with that reported in literature. The specific values are provided in Supplementary Table 2.
The study conducted dose–response curve, substrate specificity, and fluorescent spectrum analyses in 100-mM Tris buffer (pH = 7.5), while pH stability experiments were performed in 100-mM Tris buffer at three different pH values (6.5, 7.5, and 8.5) at room temperature. […] protein at a concentration of 0.75 μM, various small molecule concentrations, 1 mM ATP, and 2.5 mM MgCl2 were used in the experiments. Fluorescent signals were detected using a Microplate Reader (Synergy H4, Bio Tek) at an excitation/emission wavelength of 460 nm/510 nm or 480 nm/510 nm. The dose-response curve was determined immediately after the addition of the analyte. The total duration of the measurement was 15 min, with readings taken at one-minute intervals. The dose-response curve was plotted using the fluorescence values obtained after achieving stability in the fluorescence signal. The dose-response curves were fitted using the logistic model LOGISTIC5 available in Origin 2021, which could provide a more adequate fit to asymmetric dose-response data[62],[63]. Excitation spectra were scanned from 300 to 540 nm with a step size of 5 nm, and the emission wavelength was set to 560 nm. Emission spectra were scanned from 470 to 700 nm with a step size of 5 nm, and the excitation wavelength was set to 450 nm. The thermal stability of […] was analyzed using the UNcle multifunctional protein stability analysis system. Measurements were performed in 20 mM MOPS buffer with 2 mM DTT at a sample concentration of 1 mg/mL. Absolute fluorescence quantum yields were measured using an absolute photoluminescence quantum yield spectrometer (FS5, Edinburgh).

[2] = Dependence of […]s on Mg2+ and ATP (fluorescence intensity); type: biochemical; settings: Mg+ +
Description: Ligand specificity is an important biosensors feature. Generally, the NRPS A domains have high specificity for their substrates because they are the first “gatekeeper” of NRPSs and ensure that the correct monomers are activated and thioesterified[32],[33]. […] Twenty proteinogenic amino acids were used to test the ligand specificity of […]s. […] We also investigated the dependence of […]s on Mg^2+ and ATP (Supplementary Fig. 4).
Supplementary Fig. 4 Dependence of GEC FINDER s on Mg2+ and ATP . a-j, Fluore scence intensities of
GECF IN DERs in the absence of any substra te, in the pre sence of Mg2+ alone, ATP alone, both Mg2+ and ATP, Mg2+
and ATP with re spective substra tes. Mg2+ concentra tion was 2.5 mM, and ATP concentra tion was 1 mM. a, 100 μM
data are provided as a Source Data file.

SMILES: C[C@H](N)C(=O)O [Ala]
- fluorescence response of GECFINDER to each substrate, AVE of 3 repeats [1]: 0.02842

SMILES: N=C(N)NCCC[C@H](N)C(=O)O [Arg]
- fluorescence response of GECFINDER to each substrate, AVE of 3 repeats [1]: 0.01953

SMILES: NC(=O)C[C@H](N)C(=O)O [Asn]
- fluorescence response of GECFINDER to each substrate, AVE of 3 repeats [1]: 0.01237

SMILES: N[C@@H](CC(=O)O)C(=O)O [Asp]
- fluorescence response of GECFINDER to each substrate, AVE of 3 repeats [1]: 0.02069

SMILES: N[C@@H](CS)C(=O)O [Cys]
- fluorescence response of GECFINDER to each substrate, AVE of 3 repeats [1]: -0.0008412

SMILES: NC(=O)CC[C@H](N)C(=O)O [Gln]
- fluorescence response of GECFINDER to each substrate, AVE of 3 repeats [1]: 0.009843

SMILES: NCC(=O)O [Gly]
- fluorescence response of GECFINDER to each substrate, AVE of 3 repeats [1]: 0.007359

SMILES: NCCCC[C@H](N)C(=O)O [Lys]
- fluorescence response of GECFINDER to each substrate, AVE of 3 repeats [1]: -0.005837

SMILES: CSCC[C@H](N)C(=O)O [Met]
- AVE of Repeat 1-3, sensor signal with ligand (Supplementary Fig. 7 c) [1]: 12345.3
- fluorescence response of GECFINDER to each substrate, AVE of 3 repeats [1]: 0.1232

SMILES: [Mg+2] [Mg+]
- fluorescence intensity, AVE of 3 repeats ([2]; Supplementary Fig. 4 a, ATP -, 4-coumaric acid -): 2849
- fluorescence intensity, AVE of 3 repeats ([2]; Supplementary Fig. 4 b, ATP -, phenylalanine -): 6591
- fluorescence intensity, AVE of 3 repeats ([2]; Supplementary Fig. 4 c, ATP -, glutamine -): 17660
- fluorescence intensity, AVE of 3 repeats ([2]; Supplementary Fig. 4 e, ATP -, isoleucine -): 12580
- fluorescence intensity, AVE of 3 repeats ([2]; Supplementary Fig. 4 f, ATP -, histidine -): 26018
- fluorescence intensity, AVE of 3 repeats ([2]; Supplementary Fig. 4 g, ATP -, leucine -): 6350.33
- fluorescence intensity, AVE of 3 repeats ([2]; Supplementary Fig. 4 i, ATP -, tyrosine -): 5977
- fluorescence intensity, AVE of 3 repeats ([2]; Supplementary Fig. 4 j, ATP -, phenylalanine -): 7671.67
- fluorescence intensity, AVE of 3 repeats ([2]; Supplementary Fig. 4 h, ATP -, S-β-phenylalanine -): 5046.33
- fluorescence intensity, AVE of 3 repeats ([2]; Supplementary Fig. 4 d, ATP -, proline -): 43559.3

SMILES: N[C@@H](CC(=O)O)c1ccccc1 [S-β-phenylalanine]
- fluorescence intensity, AVE of 3 repeats ([2]; Supplementary Fig. 4 h, ATP +, S-β-phenylalanine +): 22066

SMILES: N[C@@H](CO)C(=O)O [Ser]
- fluorescence response of GECFINDER to each substrate, AVE of 3 repeats [1]: -0.004319

SMILES: C[C@@H](O)[C@H](N)C(=O)O [Thr]
- fluorescence response of GECFINDER to each substrate, AVE of 3 repeats [1]: -0.00888

SMILES: N[C@@H](Cc1c[nH]c2ccccc12)C(=O)O [Trp]
- AVE of Repeat 1-3, sensor signal with ligand (Supplementary Fig. 7 c) [1]: 11938.7
- fluorescence response of GECFINDER to each substrate, AVE of 3 repeats [1]: -0.01712

SMILES: CC(C)[C@H](N)C(=O)O [Val]
- fluorescence response of GECFINDER to each substrate, AVE of 3 repeats [1]: -0.02124

SMILES: N[C@@H](Cc1c[nH]cn1)C(=O)O [histidine]
- fluorescence intensity, AVE of 3 repeats ([2]; Supplementary Fig. 4 f, ATP +, histidine +): 33756

SMILES: CC[C@H](C)[C@H](N)C(=O)O [isoleucine]
- fluorescence intensity, AVE of 3 repeats ([2]; Supplementary Fig. 4 e, ATP +, isoleucine +): 15546

SMILES: N[C@@H](Cc1ccccc1)C(=O)O [phenylalanine]
- fluorescence intensity, AVE of 3 repeats ([2]; Supplementary Fig. 4 b, ATP +, phenylalanine +): 39284.7
- fluorescence intensity, AVE of 3 repeats ([2]; Supplementary Fig. 4 j, ATP +, phenylalanine +): 31788

SMILES: O=C(O)[C@@H]1CCCN1 [proline]
- fluorescence intensity, AVE of 3 repeats ([2]; Supplementary Fig. 4 d, ATP +, proline +): 54621.3

SMILES: N[C@@H](Cc1ccc(O)cc1)C(=O)O [tyrosine]
- fluorescence intensity, AVE of 3 repeats ([2]; Supplementary Fig. 4 i, ATP +, tyrosine +): 9237.33
